Where “and” joins values, the source holds several entries; their conditions need not be identical. Equal entries are not always repeated.

The target in test [1] is T1, ALR2 (AKR1B1, aldose reductase) (Homo sapiens, UniProt P15121).
T1 construct: The plasmid (pET28b, Novagen) containing the open reading frame of the human ALR2 gene; hexa-histidine (cleaved yes); made in house; host or cells: E. coli BL21 gold (DE3)
Put plainly: ALR2 enzyme assay (in vitro). The test is classed as biochemical. The conditions noted are these: for inhibition at 20 µM: read-out: ALR2 inhibition rate. As for the experimental part:
(§1) For the AKR1B1 enzyme assay and SPR measurements, the protein was expressed and purified using the protocol related to the one reported previously. The plasmid (pET28b, Novagen) containing the open reading frame of the human ALR2 gene was kindly provided by Atagenix, Wuhan, Hubei, China. The E. coli strain BL21 gold (DE3) (Novagen) was used to express the hexa-histidine tagged protein after induction with IPTG (Roth) for 16 h at 293 K. The pellet from a 4 L culture was resuspended in a buffer containing 20 mM Tris and 500 mM NaCl (pH 8.0) before being sonicated and centrifuged. A HiTrap chelating HP column (GE Healthcare) was loaded with the supernatant. After a short washing step with a low imidazole concentration, the fusion protein was eluted by applying a gradient of imidazole. The buffer was exchanged with 20mM Tris-HCl, 10 mM NaCl, 1mM EDTA, and the tag cleaved by thrombin (yuanyeBio-Technology Co. Ltd. Shanghai, China). A Hiprep DEAE FastFlow 16/10 column (GE Healthcare) was loaded with the remaining solution. A NaCl gradient was used to elute the ALR2 from the column.
In the first step of the polyol pathway, glucose reduction is accompanied by the conversation of NADPH to NADP, where only NADPH has an obvious spectral absorption around 340 nm and NADP has none. Thus, the decrease in OD340nm can represent the consumption of NADPH. Therefore, we detect the change of OD340nm before and after reaction to screen the effective ARIs or evaluate the AR activity; assays with epalrestat were used as positive controls. Briefly, the incubation system contains 10 µL ALR2 enzyme (20 µg/mL), 80 µL DL-glyceraldehyde (0.16 mmol/L) as the substrate, 1.0 mmol/L NADPH·4Na as a coenzyme, and 0.1 mol/L PBS (pH = 6.2). […] Then, the absorbance was measured using FlexStation 3 Reader (Molecular Devices, San Francisco, CA, USA) at 340 nm. The absorbance of wells treated with PBS and NADPH was considered as 100% (OD1) and the absorbance of wells treated with PBS and DL-glyceraldehyde was considered as 0% (OD2); the inhibitory rate was calculated by the formula ODcompounds − OD2/OD1 − OD2. […]

The target of another test is T2, ALR2 (Homo sapiens, UniProt P15121).
T2 construct: The plasmid (pET28b, Novagen) containing the open reading frame of the human ALR2 gene; hexa-histidine (cleaved yes); made in house; host or cells: E. coli BL21 gold (DE3)
Put plainly: Surface plasmon resonance (SPR) binding assay, Biacore T200. As to conditions: ALR2 immobilized on CM5 chip, PBS-P+ buffer, room temperature; read-out: KD value (binding between ALR2 and compound, SPR). The protocol:
as §1
SPR binding analysis methodology can be used to study molecular interactions. Herein, SPR was applied to measure the interactions between compounds 13/14 and ALR2. Initially, ALR2 was prepared in 10 mM sodium acetate (pH 5.0) and then immobilized covalently by an amine-coupling reaction on a CM5 sensor chip. […]
For orientation: In SPR one partner is held on a chip, and binding of the other changes the refractive index at the surface.

As for `NC1=NC(=O)/C(=C2\CCNC(=O)c3[nH]ccc32)N1` [Compound 13], the inhibition at 20 µM in test [1] was greater than 50%. Moreover, the Kd at ALR2 turned out to be 12.5 µM.
With `NC1=NC(=O)/C(=C2/CCNC(=O)c3[nH]ccc32)N1` [Compound 14], the inhibition at 20 µM in test [1] is greater than 50%. Moreover, the IC50 in test [1] (recombinant ALR2, DL-glyceraldehyde substrate, NADPH, PBS pH 6.2, 10 min at 25 °C, OD340nm, read-out: IC50 of ALR2 inhibitory activity) was 13.1 µM. Besides, at ALR2, the dissociation constant (Kd) is 6.9 µM and 6.89 µM.

A word on the inhibition: it is how much of the control response was suppressed. By Kd is commonly meant a measure of binding affinity in units of concentration. Usually IC50 stands for the midpoint of a concentration-inhibition curve.

The values above are taken from article PMC9320028, “A Series of New Pyrrole Alkaloids with ALR2 Inhibitory Activities from the Sponge Stylissa massa” (Marine Drugs, 2022).
